According to PubChem BioAssay (NCI):
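These data come from cells grown in 96-well plates and exposed to compound for 48 hours at five concentrations. GI50 = concentration required for 50% inhibition of growth. At the TGI there is no net growth.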

Experiments:
Assay in all cases: growth of human tumour cells (NCI), 48 h
[1] = system: BT-549 breast
[2] = system: UACC-62 melanoma
[3] = system: HOP-62 NSCLC
[4] = system: COLO 205 colon
[5] = system: T-47D breast
[6] = system: HOP-92 NSCLC
[7] = system: SF-268 CNS
[8] = system: HCT-15 colon
[9] = system: NCI-H460 lung
[10] = system: SN12C renal
[11] = system: KM12 colon
[12] = system: OVCAR-4 ovarian
[13] = system: SK-MEL-28 melanoma
[14] = system: OVCAR-8 ovarian
[15] = system: HCC-2998 colon
[16] = system: SNB-19 CNS
[17] = system: SF-539 CNS
[18] = system: NCI-H23 lung
[19] = system: MDA-MB-435
[20] = system: MCF7 breast
[21] = system: PC-3 prostate
[22] = system: DU-145 prostate
[23] = system: HS 578T breast
[24] = system: OVCAR-5 ovarian
[25] = system: UO-31 renal
[26] = system: MDA-MB-231 breast
[27] = system: U251 CNS
[28] = system: HCT-116 colon
[29] = system: K-562 leukemia
[30] = system: EKVX NSCLC
[31] = system: M14 melanoma
[32] = system: MALME-3M melanoma
[33] = system: RPMI-8226 leukemia
[34] = system: CAKI-1 renal
[35] = system: NCI-H522 lung
[36] = system: RXF 393 renal
[37] = system: SK-MEL-2 melanoma
[38] = system: OVCAR-3 ovarian
[39] = system: CCRF-CEM leukemia
[40] = system: SK-MEL-5 melanoma
[41] = system: HT29 colon
[42] = system: MOLT-4 leukemia
[43] = system: ACHN renal
[44] = system: SK-OV-3 ovarian
[45] = system: SNB-75 CNS
[46] = system: A498 renal
[47] = system: NCI/ADR-RES ovarian
[48] = system: UACC-257 melanoma
[49] = system: TK-10 renal
[50] = system: NCI-H226 lung
[51] = system: SW-620 colon
[52] = system: SF-295 CNS
[53] = system: IGROV1 ovarian
[54] = system: 786-0 renal
[55] = system: A549 NSCLC
[56] = system: LOX IMVI melanoma

With `O=C1CC/C(=C/COc2cc(=O)oc3ccccc23)O1` the GI50 [1] was 11.5 µM, the TGI [1] was 24.7 µM and the GI50 [2] was 12.2 µM. It also gave a TGI [2] of 25.1 µM, a GI50 [3] of 14.3 µM and a TGI [3] of 31.1 µM. For the same molecule, the GI50 [4] was 3.61 µM, the TGI [4] was 17.5 µM and the GI50 [5] was 2.27 µM. For the same molecule, the TGI [5] was 19.8 µM, the GI50 [6] was 10.5 µM and the TGI [6] was 26.9 µM. For the same molecule, the GI50 [7] was 16.2 µM, the TGI [7] was 51.7 µM and the GI50 [8] was 5.28 µM. The TGI [8] was 18.4 µM, the GI50 [9] was 17.5 µM and the TGI [9] was 47.2 µM. For the same molecule, the GI50 [10] was 14.7 µM, the TGI [10] was 36 µM and the GI50 [11] was 7.14 µM. For the same molecule, the TGI [11] was 25.1 µM, the GI50 [12] was 1.62 µM and the TGI [12] was 14.4 µM. The GI50 [13] was 14 µM, the TGI [13] was 28.5 µM and the GI50 [14] was 11.7 µM. It also gave a TGI [14] of 27.7 µM, a GI50 [15] of 15.5 µM and a TGI [15] of 29.5 µM. The GI50 [16] was 10.9 µM, the TGI [16] was 26.7 µM and the GI50 [17] was 6.01 µM. For the same molecule, the TGI [17] was 21.1 µM, the GI50 [18] was 12.8 µM and the TGI [18] was 26.8 µM. It also gave a GI50 [19] of 7.11 µM, a TGI [19] of 22.1 µM and a GI50 [20] of 3.74 µM. The TGI [20] was 20.2 µM, the GI50 [21] was 5.23 µM and the TGI [21] was 23.9 µM. It also gave a GI50 [22] of 4.32 µM, a TGI [22] of 17.6 µM and a GI50 [23] of 10.5 µM. For the same molecule, the TGI [23] was 57.4 µM, the GI50 [24] was 3.68 µM and the TGI [24] was 22.2 µM. It also gave a GI50 [25] of 7.65 µM, a TGI [25] of 21.2 µM and a GI50 [26] of 11.5 µM. It also gave a TGI [26] of 24.4 µM, a GI50 [27] of 11 µM and a TGI [27] of 23.4 µM. For the same molecule, the GI50 [28] was 6.95 µM, the TGI [28] was 19.7 µM and the GI50 [29] was 19.3 µM. It also gave a TGI [29] of 95.2 µM, a GI50 [30] of 17.9 µM and a TGI [30] of 40.1 µM. For the same molecule, the GI50 [31] was 2.48 µM, the TGI [31] was 13 µM and the GI50 [32] was 2.87 µM. The TGI [32] was 17.9 µM, the GI50 [33] was 2.02 µM and the TGI [33] was 8.07 µM. It also gave a GI50 [34] of 11.9 µM, a TGI [34] of 28.3 µM and a GI50 [35] of 1.73 µM. For the same molecule, the TGI [35] was 4.36 µM, the GI50 [36] was 6.9 µM and the TGI [36] was 21 µM. The GI50 [37] was 6.78 µM, the TGI [37] was 37.1 µM and the GI50 [38] was 5.41 µM. For the same molecule, the TGI [38] was 21.1 µM, the GI50 [39] was 3.1 µM and the TGI [39] was 21.5 µM. For the same molecule, the GI50 [40] was 16.8 µM, the TGI [40] was 33.1 µM and the GI50 [41] was 4.38 µM. The TGI [41] was 19.6 µM, the GI50 [42] was 3.78 µM and the TGI [42] was greater than 100 µM. It also gave a GI50 [43] of 1.29 µM, a TGI [43] of 2.55 µM and a GI50 [44] of 22.9 µM. It also gave a TGI [44] greater than 100 µM, a GI50 [45] of 1.58 µM and a TGI [45] of 11.8 µM. For the same molecule, the GI50 [46] was 12.6 µM, the TGI [46] was 35.4 µM and the GI50 [47] was 11.5 µM. For the same molecule, the TGI [47] was 27.5 µM, the GI50 [48] was 12.9 µM and the TGI [48] was 27.7 µM. For the same molecule, the GI50 [49] was 2.73 µM, the TGI [49] was 10.5 µM and the GI50 [50] was 17.9 µM. It also gave a TGI [50] of 73.5 µM, a GI50 [51] of 4.37 µM and a TGI [51] of 18.2 µM. It also gave a GI50 [52] of 14.8 µM, a TGI [52] of 40.6 µM and a GI50 [53] of 5.05 µM. The TGI [53] was 19.5 µM, the GI50 [54] was 2.54 µM and the TGI [54] was 15.9 µM. It also gave a GI50 [55] of 16.4 µM, a TGI [55] of 30.8 µM and a GI50 [56] of 6.41 µM. It also gave a TGI [56] of 19.7 µM.
